ChEMBL document CHEMBL4831524, “AZD0284, a Potent, Selective, and Orally Bioavailable Inverse Agonist of Retinoic Acid Receptor-Related Orphan Receptor C2” (J Med Chem, 2021)

What was measured:
[1] = Volume of distribution at steady state in Beagle dog at 1 mg/kg, iv; format: ADME, organism-based, Canis lupus familiaris; settings: in vivo, read-out: Vdss
[2] = Half life in Han Wistar rat at 0.5 mg/kg, iv; format: ADME, organism-based; settings: in vivo
[3] = Metabolic stability in mouse hepatocytes assessed as intrinsic clearance measured per 10^6 cells; format: ADME, cell-based, Hepatocyte; settings: read-out: CLH
[4] = Oral bioavailability in Han Wistar rat at 50 mg/kg using crystaline form of sample; format: ADME, organism-based; settings: in vivo
[5] = Plasma protein binding in dog assessed as unbound fraction by equilibrium dialysis; format: ADME, cell-free, Canis lupus familiaris
[6] = Volume of distribution at steady state in C57BL/6 mouse at 1 mg/kg, iv; format: ADME, organism-based; settings: in vivo, read-out: Vdss
[7] = system: MDR1; assay: Apparent permeability across apical to basolateral side in dog MDCK-MDR1 cells; format: ADME, cell-based, Canis lupus familiaris
[8] = Metabolic stability in dog hepatocytes assessed as intrinsic clearance measured per 10^6 cells; format: ADME, cell-based, Canis lupus familiaris, Hepatocyte; settings: read-out: CLH
[9] = in vitro; settings: human, liver microsomes
[10] = Renal clearance in Han Wistar rat at 0.5 mg/kg, iv; format: ADME, organism-based, Kidney; settings: in vivo
[11] = species: Mus musculus; assay: animal or person; settings: C57BL/6NCrl, sc, 168 h, read-out: INH
[12] = species: Mus musculus; assay: animal or person; settings: C57BL/6NCrl, sc, 168 h, read-out: INH; remark: listed apart in the source
[13] = Fraction absorbed in Han Wistar rat at 1 mg/kg, po using amorphous form of sample; format: ADME, organism-based; settings: in vivo, read-out: Fabs
[14] = Fraction absorbed in Han Wistar rat at 50 mg/kg, po using crystaline form of sample; format: ADME, organism-based; settings: in vivo, read-out: Fabs
[15] = Total plasma clearance in Beagle dog at 1 mg/kg, iv; format: ADME, organism-based, Canis lupus familiaris
[16] = Oral bioavailability in C57BL/6 mouse at 2 mg/kg using amorphous form of sample; format: ADME, organism-based; settings: in vivo
[17] = Fraction absorbed in C57BL/6 mouse at 2 mg/kg, po using amorphous form of sample; format: ADME, organism-based; settings: in vivo, read-out: Fabs
[18] = Oral bioavailability in Han Wistar rat at 50 mg/kg using EtOH form of sample; format: ADME, organism-based; settings: in vivo
[19] = system: MDR1; assay: Apparent permeability across basolateral to apical side in dog MDCK-MDR1 cells; format: ADME, cell-based, Canis lupus familiaris
[20] = Half life in Beagle dog at 1 mg/kg, iv; format: ADME, organism-based, Canis lupus familiaris; settings: in vivo
[21] = Total plasma clearance in Han Wistar rat at 1 mg/kg, iv; format: ADME, organism-based
[22] = Oral bioavailability in Beagle dog at 10 mg/kg using crystaline form of sample; format: ADME, organism-based, Canis lupus familiaris; settings: in vivo
[23] = Apparent permeability across basolateral to apical side in human Caco-2 cells; format: ADME, cell-based
[24] = Fraction absorbed in Han Wistar rat at 50 mg/kg, po using EtOH form of sample; format: ADME, organism-based; settings: in vivo, read-out: Fabs
[25] = Fraction absorbed in Beagle dog at 10 mg/kg, po using crystaline form of sample; format: ADME, organism-based, Canis lupus familiaris; settings: in vivo, read-out: Fabs
[26] = Total plasma clearance in C57BL/6 mouse at 1 mg/kg, iv; format: ADME, organism-based
[27] = Biliary clearance in Han Wistar rat at 1 mg/kg, iv; format: ADME, organism-based, Bile; settings: in vivo
[28] = Plasma protein binding in mouse assessed as unbound fraction by equilibrium dialysis; format: ADME, cell-free
[29] = physchem; settings: 1-octanol/phosphate buffered saline, pH 7.4
[30] = Plasma protein binding in rat assessed as unbound fraction by equilibrium dialysis; format: ADME, cell-free
[31] = Oral bioavailability in Han Wistar rat at 1 mg/kg using amorphous form of sample; format: ADME, organism-based; settings: in vivo
[32] = Fraction absorbed in Beagle dog at 3 mg/kg, po using amorphous form of sample; format: ADME, organism-based, Canis lupus familiaris; settings: in vivo, read-out: Fabs
[33] = Volume of distribution at steady state in Han Wistar rat at 0.5 mg/kg, iv; format: ADME, organism-based; settings: in vivo, read-out: Vdss
[34] = Oral bioavailability in Beagle dog at 3 mg/kg using amorphous form of sample; format: ADME, organism-based, Canis lupus familiaris; settings: in vivo
[35] = Half life in C57BL/6 mouse at 1 mg/kg, iv; format: ADME, organism-based; settings: in vivo

## CC(=O)N1Cc2cc(S(C)(=O)=O)ccc2[C@@H]1C(=O)Nc1ccc(C(O)(C(F)(F)F)C(F)(F)F)cc1
[1]
  Vd: 1.9 L/kg
[2]
  half-life: 3.3 h
[3]
  hepatocyte CLint: 2.3 µL/min/1e6 cells
[4]
  bioavailability: 5%
[5]
  fraction unbound: 0.12
[6]
  Vd: 1.3 L/kg
[7]
  Papp A→B: 0.9 ×10⁻⁶ cm/s
[8]
  hepatocyte CLint: < 1 µL/min/1e6 cells
[9]
  microsomal CLint: < 3 µL/min/mg
[10]
  CL renal: 2.9 mL/min/kg
[11]
  inhibition in vivo at 50 mg/kg: 65%
[12]
  inhibition in vivo at 15 mg/kg: 67%
[13]
  Fa: 41%
[14]
  Fa: 6%
[15]
  clearance: 1.9 mL/min/kg
[16]
  bioavailability: 67%
[17]
  Fa: 71%
[18]
  bioavailability: 35%
[19]
  Papp B→A: 16 ×10⁻⁶ cm/s
[20]
  half-life: 16.6 h
[21]
  clearance: 12.4 mL/min/kg
[22]
  bioavailability: 50%
[23]
  Papp B→A: 16 ×10⁻⁶ cm/s
[24]
  Fa: 42%
[25]
  Fa: 52%
[26]
  clearance: 10.5 mL/min/kg
[27]
  CL: 0.4 mL/min/kg
[28]
  fraction unbound: 0.21
[29]
  logD: 2.4
[30]
  fraction unbound: 0.23
[31]
  bioavailability: 34%
[32]
  Fa: 99%
[33]
  Vd: 2.5 L/kg
[34]
  bioavailability: 97%
[35]
  half-life: 2.7 h
